Experimental data: patent US9682940B2, “Indazole derivatives useful as CB-1 inverse agonists” (Janssen Pharmaceutica NV, priority 2015, dated 2017)
Read-outs that look alike come from different tables or passages of the source.

Experiments:
[1] = molecular target: Human CB1R (Cannabanoid receptor 1) (Homo sapiens (Human), UniProt P21554); experiment: CB-1 in vitro cAMP (HTRF) assay in HEK-293 cells; format: cell-based; conditions: HEK-293 cells stably transfected with human CB1R, 250 nM Forskolin, mean where tested more than once, read-out: CB-1 (HEK_cAMP) EC50
Human CB1R (Cannabanoid receptor 1), sequence (P21554 whole entry): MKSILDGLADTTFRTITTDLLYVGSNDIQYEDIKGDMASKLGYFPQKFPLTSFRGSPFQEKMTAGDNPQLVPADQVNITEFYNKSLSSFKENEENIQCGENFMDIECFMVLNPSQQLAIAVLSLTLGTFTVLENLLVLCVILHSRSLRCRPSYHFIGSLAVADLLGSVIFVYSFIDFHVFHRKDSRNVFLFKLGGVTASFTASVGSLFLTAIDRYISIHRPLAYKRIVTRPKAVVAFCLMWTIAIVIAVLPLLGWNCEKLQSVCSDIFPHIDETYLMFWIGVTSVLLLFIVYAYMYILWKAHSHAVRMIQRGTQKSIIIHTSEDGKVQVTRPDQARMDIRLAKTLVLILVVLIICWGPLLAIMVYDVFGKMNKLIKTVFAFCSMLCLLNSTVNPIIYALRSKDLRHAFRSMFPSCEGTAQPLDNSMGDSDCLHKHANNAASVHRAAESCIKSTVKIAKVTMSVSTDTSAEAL
Summary of the method: (§1)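 HEK-293 cells stably expressing human CB1 or CB2 plated overnight, then tested in HBSS/5 mM HEPES/0.1% BSA with 0.5 mM IBMX and forskolin (1.5 μM working dilution). Intracellular cAMP quantified by competitive HTRF immunoassay (d2-cAMP, cryptate anti-cAMP) against a cAMP standard curve; compounds as 1/3 serial dilutions from 10 mM DMSO stocks.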

[2] = Mouse Fast PK/BBB; format: in vivo, Male C57bl/6j mice; conditions: oral; for concentration at 4 hr / concentration at 1 hr: male, C57bl/6j
Experimental: Male C57bl/6j mice were ordered from Charles River at 22-25 g and housed 3 per cage. They were fed standard chow (Purina 5001).
Male C57bl/6j mice were dosed with test compounds at 20 mg/kg or 30 mg/kg. Plasma was collected via retro-orbital bleeding at 1 hr and 4 hrs after dosing. Whole brain without cerebellum was collected at 4 hrs after dosing. Wet brain weight was recorded before freezing. Brains were homogenized in saline and sent for analysis for determination of concentration of test compound.

[3] = DIO mice, 30 mg/kg daily
[4] = molecular target: Human CB2R (Cannabanoid receptor 2) (Homo sapiens (Human), UniProt P34972); experiment: CB-2 in vitro cAMP (HTRF) assay in HEK-293 cells; format: cell-based; conditions: HEK-293 cells stably transfected with human CB2R, 250 nM Forskolin, mean where tested more than once, read-out: CB-2 (HEK_cAMP) EC50
Human CB2R (Cannabanoid receptor 2), sequence (P34972 whole entry): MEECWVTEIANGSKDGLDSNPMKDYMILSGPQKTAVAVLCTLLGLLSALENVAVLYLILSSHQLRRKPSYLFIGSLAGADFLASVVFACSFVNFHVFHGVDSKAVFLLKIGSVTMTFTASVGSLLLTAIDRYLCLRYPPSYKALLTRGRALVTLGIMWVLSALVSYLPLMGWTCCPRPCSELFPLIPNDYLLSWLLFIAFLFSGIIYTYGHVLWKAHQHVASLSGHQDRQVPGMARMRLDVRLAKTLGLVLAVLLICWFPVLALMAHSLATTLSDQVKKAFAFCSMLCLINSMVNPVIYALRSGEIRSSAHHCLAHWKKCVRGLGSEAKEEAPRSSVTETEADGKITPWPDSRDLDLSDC
Summary of the method: as §1

[5] = Mouse Fast PK/BBB; format: in vivo, Male C57bl/6j mice; conditions: male, C57bl/6j, brain, oral, Dose 30 mg/kg, read-out: BRAIN Mean Conc. (ng/mL) ± Std. Dev
[6] = brain, Dose 30 mg/kg, Time 4 hr, read-out: BRAIN Mean Conc. (ng/mL) ± Std. Dev
[7] = plasma, Dose 30 mg/kg, Time 1 hr, read-out: PLASMA Mean Conc. (ng/mL) ± Std. Dev
[8] = plasma, Dose 30 mg/kg, Time 4 hr, read-out: PLASMA Mean Conc. (ng/mL) ± Std. Dev

Row | EC50 [1] | EC50 [4] | SMILES | further results
1 | 6 nM | > 10000 nM | O=S(=O)(c1cccc(O)c1)N1CCC(c2c3cc(C(c4ccc(Cl)cc4)c4ccc(Cl)cc4)ccc3nn2C2CC2)CC1 [Compound 151, 3-(4-(5-(bis(4-chlorophenyl)methyl)-2-cyclopropyl-2H-indazol-3-yl)piperidin-1-ylsulfonyl)phenol] | concentration at 4 hr [2, 6]: 31.4 ± 13.4 ng/mL; concentration at 1 hr [2, 7]: 2740 ± 160 ng/mL; concentration at 4 hr [2, 8]: 884 ± 584 ng/mL; concentration at 1 hr [5]: 41.8 ± 15.7 ng/mL
2 | 2 nM | 4030 nM | COc1cc(S(=O)(=O)N2CCC(c3c4cc(C(c5ccc(Cl)cc5)c5ccc(Cl)cc5)ccc4nn3C3CC3)CC2)ccc1C(=O)O [Compound 157, 4-(4-(5-(bis(4-chlorophenyl)methyl)-2-cyclopropyl-2H-indazol-3-yl)piperidin-1-ylsulfonyl)-2-methoxybenzoic acid] | concentration at 1 hr [2, 7]: 241 ± 117 ng/mL; concentration at 4 hr [2, 8]: 13 ± 1.7 ng/mL; BRAIN Mean Conc. (ng/mL) ± Std. Dev (ng/mL) ([2]; Dose 30 mg/kg, Time 1 hr): BLOQ ± NA; BRAIN Mean Conc. (ng/mL) ± Std. Dev (ng/mL) ([2]; Dose 30 mg/kg, Time 4 hr): BLOQ ± NA
3 | 17 nM | > 10000 nM | NC(=O)c1cc(S(=O)(=O)N2CCC(c3c4cc(C(c5ccc(Cl)cc5)c5ccc(Cl)cc5)ccc4nn3C3CC3)CC2)ccc1Cl [Compound 169, 5-(4-(5-(bis(4-chlorophenyl)methyl)-2-cyclopropyl-2H-indazol-3-yl)piperidin-1-ylsulfonyl)-2-chlorobenzamide] | concentration at 4 hr [2, 6]: 54.8 ± 14.5 ng/mL; concentration at 1 hr [2, 7]: 2460 ± 427 ng/mL; concentration at 4 hr [2, 8]: 2310 ± 554 ng/mL; concentration at 1 hr [5]: 29.4 ± 3.9 ng/mL
4 | 26 nM | > 10000 nM | O=C(O)c1ccc([C@@H](c2ccc(Cl)cc2)c2ccc3[nH]nc(C4CCN(S(=O)(=O)C(F)(F)F)CC4)c3c2)cc1 [Compound 232] | BRAIN Mean Conc. (ng/mL) ± Std. Dev (ng/mL) ([2]; Dose 30 mg/kg, Time 1 hr): BLOQ ± NA; PLASMA Mean Conc. (ng/mL) ± Std. Dev ([2]; Dose 30 mg/kg, Time 1 hr): 1763 ± 474 ng/mL; BRAIN Mean Conc. (ng/mL) ± Std. Dev (ng/mL) ([2]; Dose 30 mg/kg, Time 4 hr): BLOQ ± NA; PLASMA Mean Conc. (ng/mL) ± Std. Dev ([2]; Dose 30 mg/kg, Time 4 hr): 196 ± 88.0 ng/mL
5 | 16 nM | > 10000 nM | O=C(O)c1ccc([C@@H](c2ccc(Cl)cc2)c2ccc3[nH]nc(N4CCN(S(=O)(=O)C(F)(F)F)CC4)c3c2)cc1 [Compound 234] | BRAIN Mean Conc. (ng/mL) ± Std. Dev ([2]; Dose 30 mg/kg, Time 1 hr): 11.2 ± 3.95 ng/mL; PLASMA Mean Conc. (ng/mL) ± Std. Dev ([2]; Dose 30 mg/kg, Time 1 hr): 8693 ± 499 ng/mL; BRAIN Mean Conc. (ng/mL) ± Std. Dev ([2]; Dose 30 mg/kg, Time 4 hr): 8.31 ± 2.31 ng/mL; PLASMA Mean Conc. (ng/mL) ± Std. Dev ([2]; Dose 30 mg/kg, Time 4 hr): 979 ± 376 ng/mL
6 | 25 nM | > 42000 nM | COC(=O)c1ccc(S(=O)(=O)N2CCC(c3n[nH]c4ccc(C(c5ccc(Cl)cc5)c5ccc(Cl)cc5)cc34)CC2)o1 [Compound 260] | 
7 | 271 nM | 6820 nM | O=C(O)c1ccc(S(=O)(=O)N2CCC(c3n[nH]c4ccc(C(c5ccc(Cl)cc5)c5ccc(Cl)cc5)cc34)CC2)s1 [Compound 261] | 
8 | 672 nM | > 10000 nM | O=C(NCc1ccccc1)N1CCC(c2n[nH]c3ccc(C(c4ccc(Cl)cc4)c4ccc(Cl)cc4)cc23)CC1 [Compound 262] | 
9 | 234 nM | 2330 nM | O=C(NC1CCCC1)N1CCC(c2n[nH]c3ccc(C(c4ccc(Cl)cc4)c4ccc(Cl)cc4)cc23)CC1 [Compound 263] | 
10 | 199 nM | 4270 nM | CCNC(=O)N1CCC(c2n[nH]c3ccc(C(c4ccc(Cl)cc4)c4ccc(Cl)cc4)cc23)CC1 [Compound 264] | 
11 | 208 nM | > 10000 nM | O=C(OCc1ccccc1)N1CCC(c2n[nH]c3ccc(C(c4ccc(Cl)cc4)c4ccc(Cl)cc4)cc23)CC1 [Compound 265] | 
12 | 79 nM | > 2000 nM | O=C(Oc1ccccc1)N1CCC(c2n[nH]c3ccc(C(c4ccc(Cl)cc4)c4ccc(Cl)cc4)cc23)CC1 [Compound 267] | 
13 | 32 nM | 12400 nM | CCOC(=O)N1CCC(c2n[nH]c3ccc(C(c4ccc(Cl)cc4)c4ccc(Cl)cc4)cc23)CC1 [Compound 268] | 
14 | 590 nM | > 10000 nM | O=C(O)c1ccc(S(=O)(=O)N2CCC(c3n[nH]c4ccc(C(c5ccc(Cl)cc5)c5ccc(Cl)cc5)cc34)C2)cc1 (stereo not drawn) [Compound 269] | 
15 | 9600 nM | > 10000 nM | O=C(O)c1ccc(S(=O)(=O)N2CCC(c3n[nH]c4ccc(C(c5ccc(Cl)cc5)c5ccc(Cl)cc5)cc34)C2)o1 (stereo not drawn) [Compound 270] | 
16 | 40 nM | > 10000 nM | O=C(OC1CCCC1)N1CCC(c2n[nH]c3ccc(C(c4ccc(Cl)cc4)c4ccc(Cl)cc4)cc23)CC1 [Compound 271] | 
17 | 333 nM | > 10000 nM | O=C(O)c1cccc(CN2CCC(c3n[nH]c4ccc(C(c5ccc(Cl)cc5)c5ccc(Cl)cc5)cc34)C2)c1 (stereo not drawn) [Compound 272] | 
18 | 6800 nM | > 10000 nM | O=C(O)c1cccc(S(=O)(=O)N2CCC(c3n[nH]c4ccc(C(c5ccc(Cl)cc5)c5ccc(Cl)cc5)cc34)C2)c1 (stereo not drawn) [Compound 273] | 
19 | 24 nM | > 10000 nM | O=S(=O)(N1CCC(c2nn(C3CC3)c3ccc(C(c4ccc(Cl)cc4)c4ccc(Cl)cc4)cc23)CC1)C(F)(F)F [Compound 275] | 
20 | 1550 nM | 7000 nM | CC(c1cccc(C(=O)O)c1)N1CCC(c2n[nH]c3ccc(C(c4ccc(Cl)cc4)c4ccc(Cl)cc4)cc23)C1 (stereo not drawn) [Compound 277] | 
21 | 785 nM | > 42000 nM | O=S(=O)(N1CCC(c2n[nH]c3ccc(C(c4ccc(Cl)cc4)C4CCCC4)cc23)CC1)C(F)(F)F (stereo not drawn) [Compound 279] | 
22 | 565 nM | > 42000 nM | O=S(=O)(N1CCC(c2n[nH]c3ccc(C(c4ccc(Cl)cc4)C4CCCCC4)cc23)CC1)C(F)(F)F (stereo not drawn) [Compound 280] | 

Row | SMILES | EC50 [1] | EC50 [4] | further results
23 | O=S(=O)(N1CCC(c2n[nH]c3ccc(C(c4ccc(Cl)cc4)c4ccc(Cl)cc4)cc23)CC1)C(F)(F)F [Compound 17, 5-(bis(4-chlorophenyl)methyl)-3-(1-(trifluoromethylsulfonyl)piperidin-4-yl)-1H-indazole] | 6 nM |  | BRAIN Mean Conc. (ng/mL) ± Std. Dev ([2]; Dose 20 mg/kg, Time 1 hr): 51.8 ± 16.6 ng/mL; PLASMA Mean Conc. (ng/mL) ± Std. Dev ([2]; Dose 20 mg/kg, Time 1 hr): 4478.2 ± 1576.9 ng/mL; BRAIN Mean Conc. (ng/mL) ± Std. Dev ([2]; Dose 20 mg/kg, Time 4 hr): 103.2 ± 10.8 ng/mL; PLASMA Mean Conc. (ng/mL) ± Std. Dev ([2]; Dose 20 mg/kg, Time 4 hr): 3444.4 ± 1058.9 ng/mL; Fed Blood Glucose (Std Err) ([3]; Day 0): 174 (9) mg/dL; Mean Body Weight (in Grams (Std Err)) ([3]; Day 0): 42.3 (1.0) Grams; Mean Body Weight (in Grams (Std Err)) ([3]; Day 1): 40.2 (1.1) Grams; Mean Daily Food Intake (in Grams (Std Err)) ([3]; Day 1): 0.8 (0.3) Grams; Mean Body Weight (in Grams (Std Err)) ([3]; Day 2): 38.3 (1.0) Grams; Mean Daily Food Intake (in Grams (Std Err)) ([3]; Day 2): 0.3 (0.1) Grams; Mean Body Weight (in Grams (Std Err)) ([3]; Day 3): 37.2 (1.1) Grams; Mean Daily Food Intake (in Grams (Std Err)) ([3]; Day 3): 0.5 (0.1) Grams; Fed Blood Glucose (Std Err) ([3]; Day 4): 150 (7) mg/dL; Mean Body Weight (in Grams (Std Err)) ([3]; Day 4): 36.3 (1.0) Grams; Mean Daily Food Intake (in Grams (Std Err)) ([3]; Day 4): 0.8 (0.1) Grams; Plasma Insulin (Std Err) ([3]; day 5, 2 hours after dose): 1.24 (0.28) ng/mL
24 | O=S(=O)(N1CCC(c2n[nH]c3ccc(C(c4ccc(Cl)cc4)c4ccc(Cl)cc4)cc23)CC1)C(F)(F)F [Compound 35] | 5 nM | > 10000 nM | BRAIN Mean Conc. (ng/mL) ± Std. Dev (ng/mL) ([2]; Dose 20 mg/kg, Time 1 hr): BLOQ ± NA; PLASMA Mean Conc. (ng/mL) ± Std. Dev ([2]; Dose 20 mg/kg, Time 1 hr): 3613 ± 253 ng/mL; BRAIN Mean Conc. (ng/mL) ± Std. Dev (ng/mL) ([2]; Dose 20 mg/kg, Time 4 hr): BLOQ ± NA; PLASMA Mean Conc. (ng/mL) ± Std. Dev ([2]; Dose 20 mg/kg, Time 4 hr): 611 ± 125 ng/mL
25 | NC(=O)c1cccc(CN2CCC(c3nn(C4CC4)c4ccc(C(c5ccc(Cl)cc5)c5ccc(Cl)cc5)cc34)CC2)c1 [Compound 206] | 8 nM | > 10000 nM | BRAIN Mean Conc. (ng/mL) ± Std. Dev ([2]; Dose 30 mg/kg, Time 1 hr): 21.5 ng/mL; PLASMA Mean Conc. (ng/mL) ± Std. Dev ([2]; Dose 30 mg/kg, Time 1 hr): 333.5 ± 70.5 ng/mL; BRAIN Mean Conc. (ng/mL) ± Std. Dev ([2]; Dose 30 mg/kg, Time 4 hr): 30.6 ± 6.5 ng/mL; PLASMA Mean Conc. (ng/mL) ± Std. Dev ([2]; Dose 30 mg/kg, Time 4 hr): 532.8 ± 58.9 ng/mL
26 | O=C(O)c1cccc(CN2CCC(c3nn(C4CC4)c4ccc(C(c5ccc(Cl)cc5)c5ccc(Cl)cc5)cc34)CC2)c1 [Compound 207] | 9 nM | 9700 nM | BRAIN Mean Conc. (ng/mL) ± Std. Dev ([2]; Dose 30 mg/kg, Time 1 hr): 516 ± 44.2 ng/mL; PLASMA Mean Conc. (ng/mL) ± Std. Dev ([2]; Dose 30 mg/kg, Time 1 hr): 7373 ± 867 ng/mL; BRAIN Mean Conc. (ng/mL) ± Std. Dev ([2]; Dose 30 mg/kg, Time 4 hr): 1180 ± 115 ng/mL; PLASMA Mean Conc. (ng/mL) ± Std. Dev ([2]; Dose 30 mg/kg, Time 4 hr): 4317 ± 856 ng/mL
